Square brackets hold non-standard residues; d marks the D form. Ends that are not written are not given here. Peptide text beside a SMILES is read from it. Gly(N-CH2CH2-imidazol-4-yl) = O=C(O)CNCCc1c[nH]cn1; Nspe = C[C@H](NCC(=O)O)c1ccccc1; Nphe = O=C(O)CNCc1ccccc1; Nlys = NCCCCNCC(=O)O
Legend:
[1] = tested on: A549 lung epithelial cells; experiment: MTS assay, A549 cells
Description: The biocompatibility of selected oligomers with A549 lung epithelial cells was evaluated using the MTS [3-(4,5-dimethylthiazol-2-yl)-5-(3-carboxymethoxyphenyl)-2-(4-sulfophenyl)-2H-tetrazolium] assay.
MTS Assays. A549 carcinoma-derived lung epithelial cells (ATTC CCL-185) were cultured in Ham's F12K media (ATTC, Manassas, Va.). A peptoid solution plate (100 μL/well) was prepared by serial dilution of aqueous peptoid stocks in media. Peptoid solutions were transferred onto a 96-well plate of day-old cell monolayers containing 100 μL/well media with 5000 cells/well. MTS reagent (Promega Corporation, Madison, Wis.) (40 μL/well) was added to each well and the plate was incubated at 37° C. for 3 h, after which absorbance at 490 nm was determined. Percent inhibition was determined as [1−(A−Atest blank)/(Acontrol−Ablank)]×100, where A is the absorbance of the test well and Acontrol the average absorbance of wells with cells exposed to media and MTS (no peptoid). Atest blank (media, MTS, and peptoid) and Ablank (media and MTS) were background absorbances measured in the absence of cells. The average of six replicates are reported, and error bars show one standard deviation.

[2] = RP-HPLC solvent composition at elution as measure of molecular hydrophobicity; assay type: physicochemical; details: for HPLC elution solvent: Table 1, percent acetonitrile in water, 0.1% (v/v) TFA at HPLC elution; for % ACN at RP-HPLC elution: Table 8, gradient 5 to 95% ACN over 45 min, 0.2 ml/min, average of three replicates
Excerpt: An initial set of 15 ampetoid analogs was synthesized to determine whether peptoids are affected by structural and sequence modifications in a manner consistent with AMP activities. The designs for ampetoids in this library were derived from two antibacterial and selective amphipathic dodecamers, 1 and 2. Peptoid 1 [H-(Nlys-Nspe-Nspe)4-NH2] is composed of 2/3 Nspe, the peptoid analog of phenylalanine, and 1/3 Mys, the peptoid analog of lysine (see FIG. 1 for the structures of representative peptoid monomers and corresponding N-substituents). Peptoid 2 [H-(Mys-Nssb-Nspe)4-NH2] contains 1/3 isoleucine-like Nssb monomers in place of Nspe. The variant sequences were designed to effect changes in chirality, length, hydrophobicity, charge, and amphipathicity. All of these compounds were tested for antibacterial activity against representative BSL1 Gram-negative (E. coli JM109) and Gram-positive (B. subtilis BR151) bacterial strains. As an initial measure of selectivity, the lytic activity of the peptoids was determined against human erythrocytes. Table 1 summarizes the sequences synthesized, the solvent composition at RP-HPLC elution as a relative measure of molecular hydrophobicity, and antibacterial and hemolytic activities.
Following synthesis, peptoid oligomers can be cleaved from the resin, simultaneously removing the tert-butoxycarbonyl (Boc) protecting group from Mys residues, by treatment with 10 ml 2,2,2-trifluoroacetic acid (TFA)/triisopropylsilane/H2O (95:2.5:2.5 by volume) for 30 min. The cleavage mixture is then diluted with 25 ml 50% aqueous acetonitrile, frozen, and lyophilized. Dilution and lyophilization is repeated twice more in order to remove excess TFA. Subsequent to cleavage, peptoids are each purified to >97% homogeneity by preparative scale reversed-phase HPLC using a Waters Prep LC 4000 system, with Waters 2487 dual-wavelength UV detection, and gradient elution (solvent A, 0.1 vol % trifluoroacetic acid (TFA) in water; solvent B, 0.1 vol % TFA in acetonitrile) through a Vydac (Hysperia, Calif.) 214TP101550 C4 peptide/protein column (10-15 μm, 300 Å, 5×25 cm). Following prep HPLC, peptoid purities and crude yields were determined from analytical scale HPLC, performed with a Waters 2695 Separations Module with a Waters 2487 dual-wavelength UV detector and gradient elution (solvent A, 0.1 vol % TFA in water; solvent B, 0.1 vol % TFA in acetonitrile) through a Vydac C4 214TP53 peptide/protein column (5 μm, 300 Å, 3.2×250 mm). The precise gradient employed for HPLC depended on the identity and hydrophobicity of the oligomer in question. All analytical HPLC was performed at 0.5 ml/min flow and 58° C. Preparative HPLC was performed at 50 ml/min flow and room temperature.
Compound synthesis and purification. Peptoids were synthesized using an ABI 433A peptide synthesizer (Applied Biosystems, Inc.) on Rink amide MBHA resin (Novabiochem, Inc.) using the submonomer approach^3. Briefly, bromoacetic acid, activated by diisopropylcarbodiimide was used to form a bromocetylated intermediate on the terminal amide group. Bromide was then substituted with the desired primary amine through SN2 displacement to build the peptoid chain. The amines used in peptoid synthesis include benzylamine, octadecylamine, (s)-(+)-2-amino-3-methylbutane, (s)-α-methylbenzylamine, (r)-(α-methylbenzylamine (all purchased from Sigma-Aldrich), and N-tert-butoxycarbonyl-1,4 diaminobutane (Mys) that was made using a published procedure^83. Resin-bound peptoids were then exposed to a mixture of trifluoroacetic acid (TFA): triisopropylsilane:water (95:2.5:2.5, v:v:v) for ten minutes to cleave peptoids from the solid phase. Peptoids were purified by reversed-phase HPLC (RP-HPLC) (Waters Corporation) using a C18 column and a linear acetonitrile/water gradient. A final purity greater than 97% as measured by analytical RP-HPLC (Waters Corporation) was achieved, and the identity of each molecule was checked using electrospray ionization mass spectrometry. […]

[3] = tested on: six strains of S. aureus; experiment: Broad-spectrum antibacterial MIC, summary over S. aureus strains; assay type: cell-based; details: text summary of Table 7B; 10% hemolytic dose / MIC
Description: The activities of ampetoids tested against BSL2 Gram-positive strains, however, compared very favorably to those of pexiganan.
Broad-spectrum antibacterial assays. MICs of compounds were determined by microdilution procedure in Mueller-Hinton broth (MHB) in accordance with CLSI M7-A6 protocols in a manner similar to that described for the screen antibacterial assays. Inoculated microtiter plates were incubated at 35° C. for 24 hours prior to the result being recorded. Four ATCC strains that were used as standards are recommended by CLSI: Pseudomonas aeruginosa ATCC 27853, Escherichia coli ATCC 25922, Staphylococcus aureus ATCC 29213 and Enterococcus faecalis ATCC 29212. Other strains from the ATCC collection include Proteus vulgaris ATCC 49132, Proteus mirabilis ATCC 35659, Klebsiella pneumoniae ATCC 33495, Enterobacter aerogenes ATCC 35029 and Serratia marcescens ATCC 13880. S. aureus NRS100 (COL) is a well characterized methicillian-resistant S. aureus (MRSA) strain. The strains S. aureus VAN1 and S. aureus VAN2, vancomycin-resistant MRSA strains that were isolated in Michigan and Pennsylvania, were the first vancomycin-resistant strains clinically isolated. S. aureus NRS 119 and S. aureus NRS 120 are linezolid-resistant isolates from the Network on Antimicrobial Resistance in S. aureus (NARSA) collection. […]

Molecule	ID10 relative to that of pexiganan [1] [times]	HPLC elution solvent [2] [%]	% ACN at RP-HPLC elution ([2]; C18 column) [% ACN]	HPLC ELUTION ([2]; Table 2, percent acetonitrile in H2O, C18 column, 0.1% TFA, pH 1) [%]	HPLC elution (% ACN) ([2]; Table 5, average of three injections, linear 5%-95% acetonitrile/water (0.1% TFA) over 45 minutes, C18 column)	selectivity ratios, range over S. aureus strains [3]
C[C@@H](c1ccccc1)N(CC(=O)N(CCc1cnc[nH]1)CC(=O)N(CCCCN)CC(=O)N(CC(=O)N(CC(=O)N(CCCCN)CC(=O)N(CC(=O)N(CCc1cnc[nH]1)CC(N)=O)[C@@H](C)c1ccccc1)[C@@H](C)c1ccccc1)[C@@H](C)c1ccccc1)C(=O)CN(CCCCN)C(=O)CN(C(=O)CN(C(=O)CNCCCCN)[C@@H](C)c1ccccc1)[C@@H](C)c1ccccc1 [1-Nhis6,12, H-(Nlys-Nspe-Nspe-Nlys-Nspe-Nhis)2-NH2] (H-[Nlys][Nspe][Nspe][Nlys][Nspe][Gly(N-CH2CH2-imidazol-4-yl)][Nlys][Nspe][Nspe][Nlys][Nspe][Gly(N-CH2CH2-imidazol-4-yl)]-NH2)	20	37	51.4			
GIGKFLKKAKKFGKAFVKILKK-NH2 [pexiganan, reference compound]		38	50.2	38	50.2	2.8-23
NCCCCNCC(=O)N(CC(=O)N(CC(=O)N(CCCCN)CC(=O)N(CC(=O)N(CC(=O)N(CCCCN)CC(=O)N(CC(=O)N(CC(=O)N(CCCCN)CC(=O)N(CC(=O)N(CC(N)=O)Cc1ccccc1)Cc1ccccc1)Cc1ccccc1)Cc1ccccc1)Cc1ccccc1)Cc1ccccc1)Cc1ccccc1)Cc1ccccc1 [1achiral, H-(Nlys-Npm-Npm)4-NH2] (H-[Nlys][Nphe][Nphe][Nlys][Nphe][Nphe][Nlys][Nphe][Nphe][Nlys][Nphe][Nphe]-NH2)			60.4			19-39
